Experimental findings from a melting point compilation (Tetko et al.; mined from patent text by program, amines drawn as free bases though some values may be those of a salt) are described below.

SMILES strings stand for the structures.

In the case of `CCCn1cc(Cc2ccc(C(=O)O)cc2OC)c2cc(CC(C)C(=O)N3CCCC3)ccc21` (stereo not drawn), the melting point (commonly the temperature, or range, at which the solid turns liquid) was in the range of 92 to 100 °C.

In turn, `COC(=O)[C@H]1CC[C@H](n2cnn(-c3ccc(C4CCN(C(=O)C(F)(F)F)CC4)cc3)c2=O)CC1` displayed a melting point of 184 to 186 °C.

Turning to `CCOCCCN(C)Cc1ccc(NC(=O)C2=Cc3cc(-c4ccc(OCC)cc4)ccc3N(C)CC2)cc1`, the melting point lay within 129 to 131 °C.

As for `CC(C(N)=O)C(O)(Cn1cncn1)c1ccc(Cl)cc1` (stereo not drawn), the melting point is 186 to 189 °C.

With `O=S1(=O)c2cccc3cccc(c23)N1CCN1CCN(c2nsc3ccccc23)CC1`, the melting point stood at 162 °C.

`CCN1C[C@@H](C(=O)OC(C)(C)C)N(C(=O)OCc2ccccc2)C1=O` showed a melting point of 97 °C.

In turn, `CC(O)CN(CC(C)O)c1cc(C(C)(C)C)cc(C(C)(C)C)c1` (stereo not drawn) showed a melting point of 139 °C.

`CCOc1cc(N)c([N+](=O)[O-])cc1C(=O)OC` displayed a melting point of 210 °C.

`CCCCCCOc1ccc(C(=O)Cl)cc1` yielded a melting point of 90 to 93 °C.

Regarding `CCCCCCCCCCCCNc1nccc(NCCCO)n1`, the melting point lay within 58 to 59 °C.

In turn, `O=C(O)Cc1c(C(=O)c2ccc(-c3cccs3)cc2)[nH]c2cc(Cl)ccc12` came in with a melting point of 246 to 249 °C.

`O=C1CCCc2ccc(OCCCCN3CCN(c4cccc5c4OCCC5)CC3)nc2N1` came in with a melting point of 186 to 187 °C.

In turn, `CC(CO)NC(=O)NCCCCC1CCSS1` (stereo not drawn) showed a melting point of 87 to 89 °C.

Compound `CCCCCCOC(=O)NC(=N)c1ccc(NCc2nc3cc(C(=O)N(CCC(=O)OCC)c4ccccn4)ccc3n2C)cc1` yielded a melting point of 126 to 128 °C.

In turn, `CCN1CCN(CCc2ccc(-c3ccc4c(Nc5cc(OC)c(Cl)cc5Cl)c(C#N)cnc4c3)cc2)CC1` gave a melting point of 75 to 78 °C.

Regarding `CC(C)(C)OC(=O)N1CCn2c(-c3ccccc3)cc(C#N)c2C1`, the melting point was in the range of 124 to 126 °C.

In turn, `COc1ccc(CNN2C(=O)CC(C)c3cnc(SC)nc32)cc1Cl` (stereo not drawn) gave a melting point of 118 to 120 °C.

Take `COc1ccc(OC(C)=O)cc1[N+](=O)[O-]`: the melting point was 93 to 97 °C.

Consider `c1ccc(C2CN3CCN=C3S2)cc1` (stereo not drawn), for which the melting point lay within 68 to 70 °C.

For `O=C(NCCCO)c1cc(Br)c(Br)[nH]1`, the melting point was in the range of 160 to 162 °C.

Regarding `CCC1(CC)c2cc(C(=O)O)c(C(=O)O)cc2C(CC)(CC)N1C(=O)c1ccccc1`, the melting point lay in the range of 244 to 246 °C.

Compound `NC(=O)c1cn(Cc2ccccc2Cl)nn1` registered a melting point of 155 to 158 °C.

On to `CC(C)[C@]1(CCc2ccc(O)cc2)CC(O)=C(Sc2cc(C(C)(C)C)cc3sc(N)nc23)C(=O)O1`, for which the melting point was in the range of 168 to 179 °C.

In turn, `CC(C)(C)c1ccc(S(=O)(=O)N2c3ccccc3C[C@H]2C(=O)NCc2ccc(OCCC(=O)O)cc2)cc1` showed a melting point of 75 °C.

`CC(C)C1CC(=O)C(=C2CCCN2)C(=O)C1` (stereo not drawn) returned a melting point of 143 to 145 °C.

For `CCCc1c(COc2ccc3c(=O)cc(C(=O)O)oc3c2CCC)ccc(C(C)=O)c1O`, the melting point lay in the range of 195 to 205 °C.

`Fc1ccc(OCCCc2c[nH]cn2)cc1` yielded a melting point of 135 to 137 °C.

Take `CC(O)CN1CCC(c2noc3cc(F)ccc23)CC1` (stereo not drawn): the melting point lay within 45 to 47 °C.

Take `O=C(Nc1nccs1)c1nc(-c2ccc(CN3CCOCC3)cc2)[nH]c1-c1ccc(Cl)cc1`: the melting point is 253 to 255 °C.

In turn, `CC(C)c1cccc(C(C)C)c1NC(=O)CSCCCCCCCCCBr` gave a melting point of 85 to 86 °C.

Consider `Cc1ccc(-c2csc(C(=O)Nc3nnn[nH]3)n2)cc1`, for which the melting point is 276 to 278 °C.

In turn, `CC(N/C(C#N)=C(\N)C#N)c1ccc(Cl)cc1` (stereo not drawn) gave a melting point of 145 to 146 °C.

Take `N#CCc1cn(-c2ccccc2)nc1OCc1ccccc1`: the melting point is 102 to 103 °C.

`CCC(C)(C)Nc1c(NCc2ccc(F)cc2Cl)c(=O)c1=O` had a melting point of 201 to 203 °C.

The compound `CCN1c2ncc(COc3ccccc3)cc2C(=O)N(C)c2ccc(Cl)nc21` yielded a melting point of 140 to 141 °C.

For `NS(=O)(=O)Cc1csc(-c2ccc(Cl)c(Cl)c2)n1`, the melting point was in the range of 165 to 167 °C.

With `CCOc1ccc(-c2[nH]c3ccc(OCc4ccccc4)cc3c2C)cc1`, the melting point was 143 to 145 °C.

For `COc1cccc(-n2c(=O)[nH]c3c(C(N)=O)nc(-c4cccc(O)c4)nc32)c1F`, the melting point was over 260 °C.

`COc1cc(C(=O)O)cc(OC)c1-c1ccc(C[C@H](NC(=O)c2c(Cl)cccc2Cl)C(=O)O)cc1` displayed a melting point of 277 to 278 °C.

As to `Cn1nc(N)nc1NCCCOc1ccc(CN2CCCCC2)cc1`, the melting point fell in the range of 104 to 105 °C.

Compound `CCOc1ccc2c(c1)C(=O)Cc1c(Cl)cccc1S2` showed a melting point of 121 to 123 °C.

With `CON1C(C)(C)CC(=O)CC1(C)C`, the melting point lay in the range of 35 to 38 °C.

The compound `COC(=O)C1=C(C)NC(C)=C(C(=O)n2ccnc2)C1c1cccc2nonc12` (stereo not drawn) returned a melting point of 195 °C.

On to `CC(C)(C)c1cc(C(=O)c2ccc(N)cc2)cc(C(C)(C)C)c1O`, for which the melting point was in the range of 164 to 166 °C.

Regarding `Cc1nnc2ccc(-c3cccc(NC=O)c3)nn12`, the melting point lay in the range of 265 to 268 °C.

On to `CCC(=O)Cc1cc(OC)ccc1NC(=O)OC(C)(C)C`, for which the melting point lay within 80 to 81 °C.

`CCOC(Cc1ccc(OCCN(C)c2nc3ccccc3o2)cc1)C(N)=S` (stereo not drawn) displayed a melting point of 46 to 48 °C.

Turning to `COC(=O)C1=C(C)Nc2nc(N3CCOCC3)nc(N3CCOCC3)c2C1c1ccc([N+](=O)[O-])cc1` (stereo not drawn), the melting point was 236 °C.

For the compound `CN1C(=O)N(CCN=C=O)C(C)(C)C1=O`, the melting point was 62 °C.

The compound `COc1nc2ccccc2nc1NC(=O)N1CCC(c2ccccc2)(c2ccccc2)CC1` had a melting point of 202 to 204 °C.

The compound `CN=Cc1ccc2c(Br)c(OC)ccc2c1` returned a melting point of 105 to 107 °C.

As to `CCOC(=O)c1cc(C#Cc2ccccn2)c2ccccc2n1`, the melting point lay within 129 to 131 °C.

Take `O=C(NC(NC(=S)Nc1ccccc1)C(F)(F)F)c1ccc(Cl)cc1` (stereo not drawn): the melting point is 198 to 201 °C.

`Cc1ccc(CN2C(=O)C(C)Oc3c(C(=O)NC4CN5CCC4CC5)cc(Cl)cc32)cc1` (stereo not drawn): the melting point stood at 156 °C.

Regarding `CC1=C(C(=O)OCc2ccccc2)C2CCC(CCOC(=O)c3ccc(Br)cc3)N2C(=NC(=O)c2ccc(Br)cc2)N1` (stereo not drawn), the melting point is 175 to 176 °C.

In the case of `COCC1(C)OC(=O)N(c2cc(Cl)cc(Cl)c2)C1=O` (stereo not drawn), the melting point was 108 to 111 °C.

For `Cc1noc(CC(=O)O)n1`, the melting point stood at 95 °C.

As to `CNc1ccc(Oc2nc(OC)cc(OC)n2)c(C(=O)O)n1`, the melting point lay in the range of 172 to 174 °C.

`CC(Br)=C(c1ccccc1)c1ccccc1` showed a melting point of 46 to 47 °C.

As for `CC(C)(CO)NS(=O)(=O)c1cnc(NC(=O)c2cnn3c(C(F)(F)F)cc(-c4ccc(C(F)(F)F)cc4)nc23)s1`, the melting point amounted to 292 °C.

`CS(=O)(=O)c1ccc(-c2nn(Cc3ccccc3)c(=S)cc2-c2ccc(F)cc2)cc1` gave a melting point of 182 °C.

With `COc1cc(C(=O)NCC2NC(C)Cc3ccccc32)cc(OC)c1OC` (stereo not drawn), the melting point is 162 to 164 °C.

Turning to `CCOC(=O)c1cnc(N(Cc2cc(Br)ccc2OCc2ccccc2)C(=O)OC(C)(C)C)cn1`, the melting point is 116 to 117 °C.

The compound `N#CC(C#N)=C1C=C(C=Cc2ccc(N)cc2)OC(C=Cc2ccc(N)cc2)=C1` returned a melting point of 249 °C.

Regarding `Cc1ccc(N)c(C(=S)NCC2CC2)c1`, the melting point was 124 °C.

In the case of `O=C(O)c1ccc(CCCc2ccc(Br)cc2OCc2ccccc2)cc1`, the melting point was in the range of 141 to 142 °C.

Turning to `CCCCCCOc1ccc(-c2nc(-c3ccc(OCCCCCC)cc3O)nc(-c3ccc(OCCCCCC)cc3OCCCCCC)n2)c(O)c1`, the melting point lay within 85 to 87 °C.

The compound `CCOc1ccc(-c2nn(C(C)c3oc4ccccc4c(=O)c3-c3cccc(F)c3)c3ncnc(N)c23)cc1` (stereo not drawn) gave a melting point of 229 to 232 °C.

Compound `Cn1c(=O)c(-c2ccccc2)nc2cc3c(cc21)OC(F)(F)O3` returned a melting point of 165 °C.

Take `COc1ccc(Cc2nc3c(cnn3C(CCCc3ccccc3)C(C)O)c(=O)[nH]2)cc1OC` (stereo not drawn): the melting point was determined as 85 °C.

The compound `CC(C)(C)C(O)(COc1ccc(F)cc1)C(Cc1ccc(Cl)cc1)n1cncn1` (stereo not drawn) showed a melting point of 104 to 105 °C.

On to `Cc1nc(C=Cc2nc3ccc(F)cc3c(=O)n2-c2cccnc2C)cs1`, for which the melting point was 223 to 224 °C.

Consider `Cc1ccc(C(OC2CCN(CC(=O)O)CC2)c2ccccc2)cc1` (stereo not drawn), for which the melting point was in the range of 73.5 to 75 °C.

`CN(C)/C=C/C(=O)c1ccc(C(F)(F)F)cc1` had a melting point of 96.5 to 98 °C.

Compound `C[C@H](c1ccccc1)N1C(=O)c2c(F)c(F)c(F)c(F)c2C1=O` yielded a melting point of 95.5 to 96 °C.

Compound `O=C(O)C=Cc1cccc(-c2cccc([N+](=O)[O-])c2)c1` registered a melting point of 247 to 248 °C.

`NS(=O)(=O)c1cccc(-c2cccc(-c3nc(-c4ccc(Cl)c(Cl)c4)cc(C(F)(F)F)n3)c2)c1` gave a melting point of 241 °C.

`N=C(N)NCCCOc1ccc2c(c1)N(Cc1ccccc1)C(=O)C(CC(=O)O)C2` (stereo not drawn) displayed a melting point of 172 to 173 °C.

Regarding `COC(=O)Cn1c(=O)[nH]c(=O)c2ccc(Cl)cc21`, the melting point fell in the range of 255 to 258 °C.

Turning to `COc1cc(C)cc(-c2n[nH]cc2-c2ccnc(SC)n2)c1`, the melting point is 143 °C.

In turn, `CCOC(=O)c1[nH]c2ccc(Cl)cc2c1-c1ccccc1` registered a melting point of 171 to 172 °C.

For the compound `O=C1CC(c2cccc(-n3ccnc3)c2)=Nc2ccc(-c3ccc(F)cc3O)cc2N1`, the melting point was determined as 220 °C.

`CCOC(=O)C1(C(=O)OCC)CCC2(NCCc3cc(OC)c(OC)cc32)C(C2c3cc(OC)c(OC)cc3CCN2C(C)=O)C1` (stereo not drawn): the melting point fell in the range of 146 to 149 °C.

For the compound `COC(=O)c1c(-c2cccc(F)c2)c2cc(OCc3ccccc3)ccc2c(=O)n1CC(C)C`, the melting point was in the range of 127 to 128 °C.

As for `O=C(Nc1ccc(C(F)(F)F)cn1)Oc1ccccc1`, the melting point was 203 °C.

Consider `CC1(C)CCSc2cc(C(=O)O)ccc21`, for which the melting point was in the range of 202 to 204 °C.

In turn, `Cc1cc(Nc2nccc(-c3sc(N)nc3C)n2)ccc1N1CCOCC1` gave a melting point of 256 to 257 °C.

`O=C1NCCc2c(NCc3ccccc3)cccc21` came in with a melting point of 142 to 144 °C.
